Measurements reported in patent publication US20080004561A1, “Method for Treating Oncological, Virulent and Somatic Diseases, Method for Controlling Treatment Efficiency, Pharmaceutical Agents and Composition for Carrying Out Said Treatment” (priority 2005, published 2008).

Columns and labels:
Erlich carcinoma [1] = experiment: Influence of DNase administrated twice a day on Erlich tumor growth at mice (Example 1); assay type: in vivo; conditions: day 3 to 7, 7 day after transplantation
Procedure: (§1) Bovine pancreatic DNase I (Fermentas) and human recombinant DNase I (Dornase; Gentech) were used. DNase I solution for injections were prepared by dissolving of DNase matrix solution in sterile phosphate buffer directly before administration. Cyclophosphamide and Doxorubicin were dissolved according to instruction.
(§2) Blood plasma DNA of tumor-bearing mice was received according to technique described above. Highly metastatic and low metastatic stains of mice' Luice lung carcinoma and Erlich carcinoma were used. Cells were cultivated in RPMI-1640 media with adding of 10% embryonic calf serum, 1% penicillin—streptomycin in 5% carbon dioxide atmosphere. For tumor induction in mice, cells were cultivated until the monolayer, than were detached with trypsin-EDTA solution. Cells were washed trice by centrifuging in phosphate buffer and were resuspensed until their concentration have become 0.5×10^7/ml. Viability was defined by inclusion of methylene blue in hemocytometer. Suspensions that contained 95% of viable cells were used for administration to animals.
(§3) Mice of C57B1 line and white not thoroughbred mice from “Rappolovo” animal house were used. Weight of animals was 24-26 grams. Animals were contained in cages, for 6-7 mice per one cage on a standard diet without water restriction. LLC cells in dose of 5×10^5 in 100 mkl of phosphate buffer were injected in soft tissues of thigh. Erlich tumor was subcutaneously replanted on the right side by injection of 0.2 ml 10% cells' suspension in isotonic sodium chloride solution.
Influence of DNase I Administrated Twice a Day on Erlich Tumor Growth at Mice
(§4) Group 1—10 mice transplanted with Erlich carcinoma (control).
(§5) Group 2—10 mice transplanted with Erlich carcinoma. Mice were intraperitoneally injected with DNase at 1 mg/kg dose in […] of phosphate buffer twice a day starting from 3 up to 7 day after tumor transplantation.
Group 3—10 mice transplanted with Erlich carcinoma. Mice were intraperitoneally injected with DNase at 2 mg/kg dose in […] of phosphate buffer twice a day starting from 3 up to 7 day after tumor transplantation.

Erlich carcinoma [2] = experiment: Inhibition of Erlich tumor growth by different schemes of DNase administration (Example 2); assay type: in vivo, mice; conditions: day 3 to 7, 7 day after transplantation
Procedure: as §1, §2, §3
In our experiments DNA circulating in blood plasma of patients was the therapeutic target of DNase. Prolonged presence of DNase in blood plasma at catalytically effective concentrations is essential for provision of maximal therapeutic effect.
as §4, §5
Group 3—10 mice transplanted with Erlich carcinoma. Mice were intraperitoneally injected with DNase at 0.5 mg/kg dose in […] of phosphate buffer four times a day starting from 3 up to 7 day after tumor transplantation.

Erlich carcinoma [3] = experiment: Combined use of DNase and Doxorubicin, Erlich tumor growth (Example 3); assay type: in vivo, mice; conditions: Doxorubicin 2 mg/kg intravenously once a day and/or DNase 0.5 mg/kg intraperitoneally four times a day, day 3 to 7; 7th day after transplantation
Procedure: Bovine pancreatic DNase I (Fermentas) and human recombinant DNase […]) were used. DNase I solution for injections were prepared by dissolving of DNase matrix solution in sterile phosphate buffer directly before administration. […] Blood plasma DNA of tumor-bearing mice was received according to technique described above. Highly metastatic and low metastatic stains of mice' Luice lung carcinoma and Erlich carcinoma were used. […] For tumor induction in mice, cells were cultivated until the monolayer, than were detached with trypsin-EDTA solution. Cells were washed trice by centrifuging in phosphate buffer and were resuspensed until their concentration have become 0.5×10^7/ml. Viability was defined by inclusion of methylene blue in hemocytometer. […] Mice of C57B1 line and white not thoroughbred mice from “Rappolovo” animal house were used. Weight of animals was 24-26 grams. Animals were contained in cages, for 6-7 mice per one cage on a standard diet without water restriction. LLC cells in dose of 5×10^5 in 100 mkl of phosphate buffer were injected in soft tissues of thigh. […] Group 1-10 mice transplanted with Erlich carcinoma (control). Group 2-10 mice replanted with Erlich carcinoma. […] Group 3-10 mice replanted with Erlich carcinoma. […] Group 4-10 mice replanted with Erlich carcinoma. […] Results of experiments were estimated according to tumor's growth inhibition (TGI) that were expressed in percents to control data received at last day of DNase injection with standard formula using.

[4] = system: Escherichia coli ATCC25922; experiment: Influence of DNase on bacterial biofilm formation on glass (Example 4); assay type: cell-based
Procedure: (§6) For estimation of possible mechanisms of DNase action on bacteria' interactions with host's organism we have estimated its influence on biofilm formation.
(§7) Experiments were performed on biofilm models, received at laboratory cultivation on the surface of glass. Non-relative Gram-positive (Staphylococcus aureus VT-209) and Gram-negative (Escherichia coli ATCC25922) bacteria were used.
(§8) Bacteria were sowed at 10^9 bacteria/ml concentrations and were incubated at 37° C. during 72 hours on synthetic M9 media that contains additives necessary for used bacteria strains. DNase was added in amount of 100 mkg/ml right after bacteria' inoculation. Identical volume of phosphate buffer was added to control. Selective vials were taken for analysis every 24 hours.
(§9) Glasses were washed by PBS buffer, fixed, stained with methylene blue and studied with the use of light microscopy.

[5] = system: Staphylococcus aureus VT-209; experiment: as above; assay type: cell-based
Procedure: as §6, §7, §8, §9

[6] = system: LLC tumor (highly metastatic strain); experiment: DNase I influence on life span of mice transplanted with LLC tumor, highly metastatic strain (Example 16); assay type: in vivo, C57B1 mice; conditions: for Tumor's growth at the last day of DNase treatment: DNase 1 mg/kg two times a day, growth renewed after withdrawal; for 30 day (number of alive\number of dead in group) / 50 day (number of alive\number of dead in group): DNase 1 mg/kg intraperitoneally two times a day
Procedure: Five groups of LLC transplanted mice participated in the experiment.
Group 1—7 mice (control).
Group 2—6 mice were treated with intraperitoneal administration of DNase at 1 mg/kg dose two times a day starting from 3 up to 7 day after tumor transplantation.
Group 3—6 mice were treated with intraperitoneal administration of DNase at 1 mg/kg dose two times a day starting from 3 up to 10 day after tumor transplantation.
Group 4—6 mice were treated with intraperitoneal administration of DNase at 1 mg/kg dose two times a day starting from 3 up to 15 day after tumor transplantation.
Group 5—6 mice were treated with intraperitoneal administration of DNase at 1 mg/kg dose two times a day starting from 3 up to 18 day after tumor transplantation.
Results of experiment were estimated according to animals' survival on the 30 and 50 day after tumor transplantation.

[7] = DNase 1 mg/kg intraperitoneally twice a day
[8] = DNase 2 mg/kg intraperitoneally twice a day
[9] = DNase 0.5 mg/kg intraperitoneally four times a day
[10] = DNase 100 mkg/ml added right after inoculation, 37° C., 72 hours, M9 media, light microscopy
[11] = DNase 100 mkg/ml, control sowings from vials

## DNase
Erlich carcinoma [1]; [7]
  TGI %: 61%
  Tumor's volume: 33 +/− 6
Erlich carcinoma [1]; [8]
  TGI %: 60%
  Tumor's volume: 34 +/− 7
Erlich carcinoma [2]; [9]
  T% (tumor's growth inhibition): 76%
  Tumor's volume: 23 +/− 6
Erlich carcinoma [2]; [7]
  T% (tumor's growth inhibition): 67%
  Tumor's volume: 32 +/− 6
Erlich carcinoma [3]
  T% (tumor's growth inhibition): 78%
  Tumor's volume: 20 +/− 6
[4]; [10]
  Biofilm formation: normal biofilm was not formed
[4]; [11]
  Colony-forming units (CFU) in comparison with controls: no death of cells
[5]; [10]
  Biofilm formation: normal biofilm was not formed
[5]; [11]
  Colony-forming units (CFU) in comparison with controls: no death of cells
[6]; 2nd group, day 3 to 7
  Tumor's growth at the last day of DNase treatment: significant inhibition of tumor's growth
[6]; 3rd group, day 3 to 10
  Tumor's growth at the last day of DNase treatment: significant inhibition of tumor's growth
[6]; day 3 to 7
  30 day (number of alive\number of dead in group): 0-6
  50 day (number of alive\number of dead in group): 0-6
[6]; day 3 to 10
  30 day (number of alive\number of dead in group): 3-6
  50 day (number of alive\number of dead in group): 0-6
[6]; day 3 to 15
  50 day (number of alive\number of dead in group): 3-3
[6]; DNase 1 mg/kg two times a day from 3rd up to 18th day
  Inhibition of tumor growth at day 18: more than 95%
